# Assay results published in paper PMC12154458, “High-Throughput Screens of Repurposing Hub and DOS Chemical Libraries Reveal Compounds with Novel and Potent Inhibitory Activity Against the Essential Non-Neuronal Acetylcholinesterase of Schistosoma mansoni (SmTAChE)” (International Journal of Molecular Sciences, 2025).
# Read-outs that look alike come from different tables or passages of the source.
# Tests used:
# [1] = target: recombinant human acetylcholinesterase, rHsAChE (Homo sapiens, UniProt P22303); assay: biochemical
# Sequence of recombinant human acetylcholinesterase, rHsAChE (P22303 32-614): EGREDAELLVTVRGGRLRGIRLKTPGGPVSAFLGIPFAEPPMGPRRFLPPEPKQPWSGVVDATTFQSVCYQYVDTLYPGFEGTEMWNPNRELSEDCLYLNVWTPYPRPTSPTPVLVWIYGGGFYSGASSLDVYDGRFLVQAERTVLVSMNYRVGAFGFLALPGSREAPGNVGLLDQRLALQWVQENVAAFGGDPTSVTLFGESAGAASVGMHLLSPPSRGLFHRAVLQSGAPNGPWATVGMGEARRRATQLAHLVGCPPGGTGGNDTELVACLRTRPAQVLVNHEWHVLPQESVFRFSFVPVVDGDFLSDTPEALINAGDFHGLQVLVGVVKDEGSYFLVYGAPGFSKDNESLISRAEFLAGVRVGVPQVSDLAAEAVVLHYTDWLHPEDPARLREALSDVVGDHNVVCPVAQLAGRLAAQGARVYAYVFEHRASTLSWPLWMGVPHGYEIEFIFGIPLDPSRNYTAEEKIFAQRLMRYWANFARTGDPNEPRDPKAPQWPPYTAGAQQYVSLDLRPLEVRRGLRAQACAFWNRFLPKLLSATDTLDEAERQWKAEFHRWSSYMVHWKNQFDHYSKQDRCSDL
# [2] = target: T1, rSmTAChE (Schistosoma mansoni, UniProt A0A3Q0KMM5); type: biochemical;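 on Inhibition (%) (Average): mostly 20 µM final but a few compounds at 5 or 10 µM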;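 on Inhibition (%) Replicate A: mostly 20 µM final but a few compounds at 5 or 10 µM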;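 on Inhibition (%) Replicate B: mostly 20 µM final but a few compounds at 5 or 10 µM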
# T1 sequence (A0A3Q0KMM5 27-661 limits assumed): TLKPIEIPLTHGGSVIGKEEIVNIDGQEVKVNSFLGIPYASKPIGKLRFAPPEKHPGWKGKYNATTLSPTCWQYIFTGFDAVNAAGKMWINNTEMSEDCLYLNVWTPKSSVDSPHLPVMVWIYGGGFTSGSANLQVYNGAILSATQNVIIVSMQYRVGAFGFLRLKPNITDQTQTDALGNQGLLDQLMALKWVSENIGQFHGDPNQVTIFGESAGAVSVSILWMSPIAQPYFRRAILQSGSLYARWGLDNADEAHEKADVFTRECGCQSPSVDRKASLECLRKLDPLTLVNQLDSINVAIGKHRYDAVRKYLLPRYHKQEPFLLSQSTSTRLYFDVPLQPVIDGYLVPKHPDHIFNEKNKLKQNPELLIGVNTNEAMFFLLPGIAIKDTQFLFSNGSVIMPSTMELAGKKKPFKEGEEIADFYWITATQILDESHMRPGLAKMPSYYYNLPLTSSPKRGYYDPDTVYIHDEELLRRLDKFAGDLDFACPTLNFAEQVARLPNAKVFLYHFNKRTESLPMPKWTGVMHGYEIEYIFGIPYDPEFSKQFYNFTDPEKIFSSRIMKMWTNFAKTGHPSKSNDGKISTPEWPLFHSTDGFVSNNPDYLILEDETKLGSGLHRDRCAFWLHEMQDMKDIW
# [3] = target: T1, rSmTAChE; assay: biochemical
# [4] = read-out: qAC50 (IC50), rSmTAChE
# [5] = dose response analysis of Drug Repurposing Hub hits against rHsAChE
# [6] = read-out: HTS/rSmTAChE Inhibition (Ave, %)
# [7] = read-out: rSmTAChE HTS Inhibition (Ave, %)
Compound,Inhibition (%) (Average) [3],Inhibition (%) Replicate A [3] [%],Inhibition (%) Replicate B [3] [%],"Data Mode (curve class), rHsAChE [1]","Data Mode (curve class), rSmTAChE [2]","Data Mode (curve class), rHsAChE [1, 5]",SI (Hs/Sm) [2],IC50 ([2]; read-out: IC50 (µM) rSmTAChE) [µM],SI (Sm/Hs) [1],IC50 ([1]; read-out: IC50 (µM) rHsAChE) [µM],further results
COc1ccc(NC(=O)Nc2ccc3c(c2)[C@H]2C[C@@H](CC(=O)NCc4ccccn4)O[C@H](CO)[C@H]2O3)cc1 [BRD-K96625719-001-01-4],74.63,75.38,73.88,,,,,,,,rHsAChE Data Mode [1]: inactive; rSmTAChE Data Mode [2]: decreasing (weakly active)
CC(C)=CCC/C(C)=C/CC/C(C)=C/CSc1ccccc1C(=O)O [BRD-K98453471-001-01-7],76.52,77.70,75.33,decreasing,decreasing,,,,,,"IC50 ([1]; read-out: qAC50 (IC50), rHsAChE): 13.7 µM; IC50 [2, 4]: 11.6 µM"
"Cc1cc(Nc2ncc(Cl)c(Nc3ccccc3S(=O)(=O)C(C)C)n2)c(OC(C)C)cc1C1CCNCC1 [Ceritinib, reference compound]",,,,,decreasing,decreasing (weakly active),1.58,,,,"inhibition at 20 µM [3, 6]: 67%"
"N.N.[Cl][Pt][Cl] [Cisplatin, reference compound]",89.23,89.47,88.99,decreasing (weakly active),decreasing,,9.97,3.81,,,"fold greater potency/selectivity for SmTAChE vs. HsAChE (Selectivity Index) [2]: about 10 fold; HTS/rSmTAChE Inhibition (Ave, %) ([3]; 20 µM): 89.23%"
"CC1(COc2ccc3c(c2)ncn3-c2ccc3cccc(N4CCC(N)CC4)c3n2)COC1 [Crenolanib, reference compound]",,,,,decreasing (weakly active),decreasing,,,1.97,,"IC50 ([1]; Table 3, read-out: IC50 (µM) rHsAChE): 9.91 µM; inhibition at 20 µM [3, 7]: 64.5%"
"CN(CCCCCCCCCCN(C)C(=O)Oc1cccc([N+](C)(C)C)c1)C(=O)Oc1cccc([N+](C)(C)C)c1 [Demecarium bromide, reference compound]",,,,decreasing,decreasing,,,,,,"IC50 ([1]; IC50 (µM) rHsAChE): 0.02 µM; IC50 ([1]; qAC50 (IC50), rHsAChE): 0.0225 µM; inhibition at 20 µM [3, 7]: 65.3%"
"CCCCCCCCCCCC1=C(O)C(=O)C=C(O)C1=O [Embelin, reference compound]",,,,,decreasing,decreasing,1.44,,,,"IC50 ([1]; IC50 (µM) rHsAChE): 1.8 µM; fold greater potency/selectivity for SmTAChE vs. HsAChE (Selectivity Index) [2]: 1.4 fold; inhibition at 10 µM [3, 6]: 88.7%"
"Brc1cc2c(cc1[C@@H]1Nc3ccccc3[C@@H]3C=CC[C@@H]31)OCO2 [G15, reference compound]",,75.36,80.61,decreasing (weakly active),decreasing (weakly active),,,,2.81,> 13.5,"rSmTAChE HTS Inhibition (Ave, %) ([3]; 20 µM): 77.99%"
"O=C(O)c1ccc(-c2c[nH]c3ncc(-c4ccccc4)cc23)cc1C1CCCC1 [GSK-650394, reference compound]",,,,,decreasing,decreasing,3.46,,,,"IC50 ([1]; IC50 (µM) rHsAChE): 8.1 µM; IC50 ([1]; qAC50 (IC50), rHsAChE): 8.09 µM; inhibition at 10 µM [3, 6]: 75.4%"
"CC(C)c1onc(-c2c(Cl)cccc2Cl)c1COc1ccc(/C=C/c2cccc(C(=O)O)c2)c(Cl)c1 [GW-4064, reference compound]",65.99,66.57,65.41,decreasing,decreasing,,6.00,1.47,,8.83,"HTS/rSmTAChE Inhibition (Ave, %) ([3]; 20 µM): 66.00%"
"O=C(O)CNC(=O)c1c(O)c2ccccc2n(Cc2ccccc2)c1=O [IOX2, reference compound]",,61.67,70.82,decreasing,decreasing,,,16.7,2.16,7.75,"IC50 [2, 4]: 16.7 µM; rSmTAChE HTS Inhibition (Ave, %) ([3]; 5 µM): 66.25%"
"COc1ccc(/C=C/CCCCOc2ccc(C(=O)c3cccc(C(=O)O)c3)cc2CCC(=O)O)cc1 [LY223982, reference compound]",,83.69,77.36,decreasing,decreasing,,,15.2,2.1,7.22,"rSmTAChE HTS Inhibition (Ave, %) ([3]; 20 µM): 80.52%"
"O=C(Nc1ncc(SCCN2CCCC2)s1)[C@]1(c2ccc(S(=O)(=O)C3CC3)cc2)C[C@H]1C1CCCCC1 [LY2608204, reference compound]",,71.61,81.29,decreasing,decreasing (weakly active),,,> 12,23.28,0.52,"rSmTAChE HTS Inhibition (Ave, %) ([3]; 20 µM): 76.45%"
